Results as given in US20220168427A1 (Ranok Therapeutics (Hangzhou) Co. Ltd., priority 2019, published 2022).
pIC50: −log10 of the molar value.

Experiments:
MV4-11 xenograft = test: MV4-11 AML tumor xenograft study in mice; details: for animals tumor free at the end of the study: 3 weeks; for tumor growth inhibition: after 3 weeks of dosing
Method: (§1) Tumor Xenograft Studies in Mice
MV4-11 acute myeloid leukemia and SU-DHL-4 diffuse large B-cell lymphoma (ATCC, #CRL-2957) cells were cultured in medium supplemented with 10% fetal bovine serum at 37° C./5% CO2. 5×10^6 MV-4-11 or 1×10^7 SU-DHL-4 cells were collected and re-suspended in 0.1 mL of serum-free media with Matrigel (1:1 v/v) per mouse for subcutaneous inoculation in isoflurane anesthetized male BALB/c nude or C.B-17 scid mice, respectively (treated in accordance with AAALAC animal welfare guidelines). When the average tumor volumes reached 100-200 mm^3, tumor volume outliers were removed and the remaining animals randomly divided into groups of 6-8 with similar average tumor volumes in each group. […] […] The appearance and behavior of each mouse was observed and recorded daily. Body weights and tumor volumes were measured and recorded every 2-4 days and the results were expressed as group means±SEM. Pairwise statistical comparisons between groups were performed by one-way ANOVA, and p<0.05 was considered statistically significant.

SU-DHL-4 xenograft = test: SU-DHL-4 DLBCL tumor xenograft study in mice
Method: as §1
5×10^6 MV-4-11 or 1×10^7 SU-DHL-4 cells were collected and re-suspended in 0.1 mL of serum-free media with Matrigel (1:1 v/v) per mouse for subcutaneous inoculation in isoflurane anesthetized male BALB/c nude or C.B-17 scid mice, respectively (treated in accordance with AAALAC animal welfare guidelines). When the average tumor volumes reached 100-200 mm^3, tumor volume outliers were removed and the remaining animals randomly divided into groups of 6-8 with similar average tumor volumes in each group. […] Animals were intravenously dosed at 25 mg/kg, 50 mg/kg or 100 mg/kg 1×/week for 3 or 4 weeks. The appearance and behavior of each mouse was observed and recorded daily. Body weights and tumor volumes were measured and recorded every 2-4 days and the results were expressed as group means±SEM. Pairwise statistical comparisons between groups were performed by one-way ANOVA, and p<0.05 was considered statistically significant.

MV4-11 cells = test: MV4-11 Cell Cytotoxicity Assay; assay type: cell-based, human; details: 72 hr, CCK-8
Text: % Inhibition=100−(D−B)/(S−B)*100%.
S: The absorbance of the maximum (cells with DMSO)
B: The absorbance of the minimum (medium with DMSO)

IGF1R = test: HSP90 Client Protein Degradation Flow Cytometry Assay, IGF1R in HEK-293 cells; assay type: cell-based, human
Method: (§2) MV4-11 cells were plated in a 24-well tissue culture plate at a density of 350,000 cells/450 μL/well and incubated in 37° C./5% CO2 for 1 hr. Cells were then treated with compounds at various concentrations and incubated in 37° C./5% CO2 for 24 hr. Cells were harvested, washed once, counted and 200 μL of 1% paraformaldehyde/PBS was added and incubated for 15 min at room temperature. 200 μL of 1×PBS/0.4% Triton X-100 was added and incubated for 15 min at 4° C. Cells were washed three times and resuspended in 50 μL of 1×PBS/0.2% Triton X-100. 2 μL/10^6 cells of anti-BRD4 antibody (ABCAM, #128874) was added and mixed by pipetting up and down. Cells were incubated for 30 min at room temperature in the dark, washed three times and resuspended in 50 μL of 1×PBS/0.2% Triton X-100. Goat anti-rabbit IgG H&L antibody (1:2000 dilution) was added and mixed by pipetting up and down and incubated for 30 min at room temperature in the dark. Finally, cells were washed three times and resuspended in 200 μL of PBS for flow cytometric analysis.
(§3) Similar flow cytometry experiments for ERBB2 in BT-474 human breast carcinoma cells (ATCC, #HTB-20) and IGF1R, EGFR and RAF1 in HEK-293 human embryonic kidney (ATCC, #CRL-1573) were performed using anti-ERBB2 (R&D, #FAB1129P), anti-IGF1R (Cell Signaling Technology, #9750), anti-EGFR (Cell Signaling Technology, #139690) and anti-RAF1 (ABCAM, #ab181115) antibodies.

ERBB2 = test: HSP90 Client Protein Degradation Flow Cytometry Assay, ERBB2 in BT-474 cells; assay type: cell-based, human
Method: as §2, §3

HSP90α = HSP90α (Homo sapiens, UniProt P07900); test: HSP90α Binding Fluorescent Polarization (FP) Assay
Method in brief: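 Duplicate wells held BSA buffer, FITC-geldanamycin tracer, compound (3-fold dilution plate spanning 40 μM–2.0 nM) and recombinant protein diluted to 28 μg/ml before addition. Polarization read at 30, 60 and 120 min, 25 °C. Background-corrected mP values gave IC50 through a four-parameter inhibitor-response fit.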

[1] = 100 mg/kg intravenously 1×/week
[2] = 100 mg/kg intravenously 1×/week, after 4 weeks of dosing

Cc1sc2c(c1C)C(c1ccc(Cl)cc1)=N[C@@H](CC(=O)N1CCC(CN3CCN(Cc4ccc(-n5c(O)nnc5-c5cc(C(C)C)c(O)cc5O)cc4)CC3)CC1)c1nnc(C)n1-2.Cl [Compound 74, (S)-2-(4-(4-chlorophenyl)-2,3,9-trimethyl-6H-thieno[3,2-f][1,2,4]triazolo[4,3-a][1,4]diazepin-6-yl)-1-(4-((4-(4-(3-(2,4-dihydroxy-5-isopropylphenyl)-5-hydroxy-4H-1,2,4-triazol-4-yl)benzyl)piperazin-1-yl)methyl)piperidin-1-yl)ethan-1-one hydrochloride]
animals tumor free at the end of the study (MV4-11 xenograft; 50 mg/kg intravenously 1×/week): 1 out of 6 | tumor growth inhibition (MV4-11 xenograft; 50 mg/kg intravenously 1×/week): significant tumor growth inhibition | animals tumor free at the end of the study (MV4-11 xenograft; [1]): 4 out of 6 | tumor growth inhibition (MV4-11 xenograft; [1]): significant tumor growth inhibition | animal deaths and body weights (MV4-11 xenograft; any group): No animal deaths or significant effects on body weights were observed | tumor growth inhibition (SU-DHL-4 xenograft; [2]): significant tumor growth inhibition | tumor vs control (T/C) value (SU-DHL-4 xenograft; [2]): 41% | animal deaths and body weights (SU-DHL-4 xenograft; any dose level): No animal deaths or significant effects on body weights were observed | pIC50 (MV4-11 cells): > 7.00 | pIC50 (IGF1R): 5.98 | pIC50 (ERBB2): 6.47 | potency in binding to HSP90, in words (HSP90α): moderate potency | pIC50 (HSP90α; competition with FITC-geldanamycin, read-out: HSP90 Binding Potency): 6.00 to 7.00
